Assay results published in patent US8410155B2, “Arylpropionamide, arylacrylamide, arylpropynamide, or arylmethylurea analogs as factor XIA inhibitors” (Bristol-Myers Squibb Company, priority 2006, dated 2013).
Where a name gives a salt, the structure may show the parent alone.

Molecular target: T1, purified human Factor XIa (Homo sapiens, UniProt P03951)
T1 construct: purchased Haematologic Technologies
Test: Factor XIa enzyme inhibition assay (chromogenic substrate S-2366)
Assay type: biochemical
Conditions: substrate S-2366, 50 mM HEPES pH 7.4
Experimental: The effectiveness of compounds of the present invention as inhibitors of the coagulation factors XIa, VIIa, IXa, Xa, XIIa, plasma kallikrein or thrombin, can be determined using a relevant purified serine protease, respectively, and an appropriate synthetic substrate. The rate of hydrolysis of the chromogenic or fluorogenic substrate by the relevant serine protease was measured both in the absence and presence of compounds of the present invention. […] A decrease in the rate of absorbance or fluorescence change in the presence of inhibitor is indicative of enzyme inhibition. Such methods are known to one skilled in the art. The results of this assay are expressed as the inhibitory constant, Ki.
Values of Ki were determined by allowing the protease to react with the substrate in the presence of the inhibitor. Reactions were allowed to go for periods of 20-180 minutes (depending on the protease) and the velocities (rate of absorbance or fluorescence change versus time) were measured. The following relationships were used to calculate Ki values: (vo−vs)/vs=I/(Ki(1+S/Km)) for a competitive inhibitor with one binding site; or vs/vo=A+((B−A)/1+((IC50/(I)^n))) and Ki=IC50/(1+S/Km) for a competitive inhibitor

T1 sequence (P03951 388-625 limits assumed): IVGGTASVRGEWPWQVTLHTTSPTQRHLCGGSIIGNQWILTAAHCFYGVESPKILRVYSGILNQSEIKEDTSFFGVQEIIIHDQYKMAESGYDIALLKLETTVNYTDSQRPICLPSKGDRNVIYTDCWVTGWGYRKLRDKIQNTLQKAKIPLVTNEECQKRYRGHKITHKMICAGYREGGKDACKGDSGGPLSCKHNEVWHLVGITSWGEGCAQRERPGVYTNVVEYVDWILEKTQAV
T1 sequence (P03951 19-387 partner limits assumed): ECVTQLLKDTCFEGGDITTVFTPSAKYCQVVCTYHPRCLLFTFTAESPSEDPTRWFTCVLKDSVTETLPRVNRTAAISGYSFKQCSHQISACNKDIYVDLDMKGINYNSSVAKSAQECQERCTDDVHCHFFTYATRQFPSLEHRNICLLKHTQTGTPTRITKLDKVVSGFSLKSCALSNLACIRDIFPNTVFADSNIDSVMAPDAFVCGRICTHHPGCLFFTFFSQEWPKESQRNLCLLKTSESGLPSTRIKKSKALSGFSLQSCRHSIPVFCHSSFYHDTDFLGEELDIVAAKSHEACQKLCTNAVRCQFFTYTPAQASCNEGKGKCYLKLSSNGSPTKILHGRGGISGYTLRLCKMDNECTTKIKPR

Structure (SMILES)	Ki
COC(=O)Nc1ccc(-c2cncc(CNC(=O)/C=C/c3cc(Cl)ccc3-n3cnnn3)c2)cc1 [Example 5, [4-(5-{[(E)-3-(5-Chloro-2-tetrazol-1-yl-phenyl)-acryloylamino]-methyl}-pyridin-3-yl)-phenyl]-carbamic acid methyl ester, trifluoroacetic acid salt]	0.283 µM
O=C(/C=C/c1cc(Cl)ccc1-n1cnnn1)NCc1nc(-c2ccc3c(c2)CCC(=O)N3)c(Cl)[nH]1 [Example 3, (E)-N-[5-Chloro-4-(2-oxo-1,2,3,4-tetrahydro-quinolin-6-yl)-1H-imidazol-2-ylmethyl]-3-(5-chloro-2-tetrazol-1-yl-phenyl)-acrylamide, trifluoroacetic acid salt]	0.0121 µM
COC(=O)Nc1ccc(-c2nc(CNC(=O)CCc3cc(Cl)ccc3-n3cnnn3)[nH]c2Cl)cc1 [Example 2, [4-(5-Chloro-2-{[3-(5-chloro-2-tetrazol-1-yl-phenyl)-propionylamino]-methyl}-1H-imidazol-4-yl)-phenyl]-carbamic acid methyl ester, trifluoroacetic acid salt]	0.0168 µM
COC(=O)Nc1ccc(-c2[nH]c(CNC(=O)/C=C/c3cc(Cl)ccc3-n3cnnn3)nc2Cl)cc1 [Example 1, [4-(5-chloro-2-{[(E)-3-(5-chloro-2-tetrazol-1-yl-phenyl)-acryloylamino]-methyl}-1H-imidazol-4-yl)-phenyl]-carbamic acid methyl ester, trifluoroacetic acid salt]	0.0273 µM

Results, then the molecule that gave them:

Ki	Structure (SMILES)
1.51 µM	COC(=O)Nc1ccc(-c2nc(CN(Cc3ccccc3)C(=O)/C=C/c3cc(Cl)ccc3-n3cnnn3)[nH]c2Cl)cc1 [Example 10, {4-[2-({Benzyl-[(E)-3-(5-chloro-2-tetrazol-1-yl-phenyl)-acryloyl]-amino}-methyl)-5-chloro-1H-imidazol-4-yl]-phenyl}-carbamic acid methyl ester, trifluoroacetic acid salt]
0.475 µM	COC(=O)Nc1ccc(-c2ccnc(CNC(=O)/C=C/c3cc(Cl)ccc3-n3cnnn3)c2)cc1 [Example 7, [4-(2-{[(E)-3-(5-Chloro-2-tetrazol-1-yl-phenyl)-acryloylamino]-methyl}-pyridin-4-yl)-phenyl]-carbamic acid methyl ester, trifluoroacetic acid salt]
1.25 µM	COC(=O)Nc1ccc(-c2cncc(CNC(=O)CCc3cc(Cl)ccc3-n3cnnn3)c2)cc1 [Example 6, [4-(5-{[3-(5-Chloro-2-tetrazol-1-yl-phenyl)-propionylamino]-methyl}-pyridin-3-yl)-phenyl]-carbamic acid methyl ester, trifluoroacetic acid salt]
0.277 µM	COC(=O)Nc1ccc(-c2c[nH]c(=O)c(CNC(=O)/C=C/c3cc(Cl)ccc3-n3cnnn3)c2)cc1 [Example 8, [4-(5-{[(E)-3-(5-Chloro-2-tetrazol-1-yl-phenyl)-acryloylamino]-methyl}-6-oxo-1,6-dihydro-pyridin-3-yl)-phenyl]-carbamic acid methyl ester]
